Results taken from the NIST ThermoML archive (doi:10.1016/j.jct.2008.06.017).

Assays:
[1] = xn = mol fraction of the nth substance listed; conditions: Liquid, Vibrating tube method
[2] = Liquid, Vibrating tube method

COC(=O)OC [dimethyl carbonate] + C=CCOC(=O)C(=C)C
[1], x1 = 1
Conditions	mass density [kg/m3]
293.15 K	1069.79
303.15 K	1056.75
313.15 K	1043.37

COC(=O)OC [dimethyl carbonate] + C=COC(C)=O
[1], x1 = 1
Conditions	mass density [kg/m3]
293.15 K	1069.79
303.15 K	1056.75
313.15 K	1043.37

COC(=O)OC [dimethyl carbonate] + C=Cc1ccccc1
[1], x1 = 1
Conditions	mass density [kg/m3]
293.15 K	1069.79
303.15 K	1056.75
313.15 K	1043.37

C=Cc1ccccc1 [styrene]
[2]
Conditions	mass density [kg/m3]
293.15 K	906.26
303.15 K	897.392
313.15 K	888.472

C=Cc1ccccc1 [styrene] + COC(=O)OC
[1]
Conditions	mass density [kg/m3]
293.15 K, x2 = 0	906.26
293.15 K, x2 = 0.0246	909.146
293.15 K, x2 = 0.0498	912.112
293.15 K, x2 = 0.1006	918.267
293.15 K, x2 = 0.1506	924.493
293.15 K, x2 = 0.2004	930.891
293.15 K, x2 = 0.2506	937.533
293.15 K, x2 = 0.3008	944.38
293.15 K, x2 = 0.3498	951.272
293.15 K, x2 = 0.4007	958.655
293.15 K, x2 = 0.4498	966.048
293.15 K, x2 = 0.5001	973.84
293.15 K, x2 = 0.5499	981.838
293.15 K, x2 = 0.5996	990.075
293.15 K, x2 = 0.6507	998.871
293.15 K, x2 = 0.7001	1007.72
293.15 K, x2 = 0.7496	1016.93
293.15 K, x2 = 0.7997	1026.61
293.15 K, x2 = 0.8501	1036.78
293.15 K, x2 = 0.9001	1047.29
293.15 K, x2 = 0.9499	1058.27
293.15 K, x2 = 0.9747	1063.93
303.15 K, x2 = 0	897.392
303.15 K, x2 = 0.0262	900.37
303.15 K, x2 = 0.0502	903.146
303.15 K, x2 = 0.1004	909.105
303.15 K, x2 = 0.1506	915.204
303.15 K, x2 = 0.2005	921.462
303.15 K, x2 = 0.2502	927.883
303.15 K, x2 = 0.3001	934.514
303.15 K, x2 = 0.3502	941.367
303.15 K, x2 = 0.4	948.407
303.15 K, x2 = 0.45	955.705
303.15 K, x2 = 0.5003	963.262
303.15 K, x2 = 0.5498	971.001
303.15 K, x2 = 0.5998	979.074
303.15 K, x2 = 0.6497	987.452
303.15 K, x2 = 0.7007	996.305
303.15 K, x2 = 0.7502	1005.27
303.15 K, x2 = 0.8002	1014.68
303.15 K, x2 = 0.85	1024.5
303.15 K, x2 = 0.8999	1034.72
303.15 K, x2 = 0.9502	1045.5
303.15 K, x2 = 0.975	1051.05
313.15 K, x2 = 0	888.472
313.15 K, x2 = 0.0256	891.333
313.15 K, x2 = 0.0501	894.082
313.15 K, x2 = 0.0998	899.822
313.15 K, x2 = 0.1514	905.948
313.15 K, x2 = 0.2007	911.977
313.15 K, x2 = 0.2506	918.225
313.15 K, x2 = 0.3008	924.745
313.15 K, x2 = 0.3499	931.26
313.15 K, x2 = 0.4006	938.218
313.15 K, x2 = 0.4501	945.282
313.15 K, x2 = 0.5103	954.115
313.15 K, x2 = 0.5503	960.19
313.15 K, x2 = 0.5995	967.947
313.15 K, x2 = 0.6499	976.16
313.15 K, x2 = 0.6999	984.624
313.15 K, x2 = 0.7503	993.432
313.15 K, x2 = 0.8002	1002.61
313.15 K, x2 = 0.8499	1012.09
313.15 K, x2 = 0.9001	1022.04
313.15 K, x2 = 0.9497	1032.41
313.15 K, x2 = 0.975	1037.84

C=COC(C)=O [vinyl acetate]
[2]
Conditions	mass density [kg/m3]
293.15 K	931.95
303.15 K	919.089
313.15 K	906.116

C=COC(C)=O [vinyl acetate] + COC(=O)OC
[1]
Conditions	mass density [kg/m3]
293.15 K, x2 = 0	931.95
293.15 K, x2 = 0.025	935.258
293.15 K, x2 = 0.0504	938.581
293.15 K, x2 = 0.1002	945.231
293.15 K, x2 = 0.1537	952.421
293.15 K, x2 = 0.1999	958.65
293.15 K, x2 = 0.25	965.315
293.15 K, x2 = 0.3001	972.123
293.15 K, x2 = 0.3498	978.865
293.15 K, x2 = 0.4002	985.701
293.15 K, x2 = 0.4503	992.611
293.15 K, x2 = 0.5	999.443
293.15 K, x2 = 0.5502	1006.39
293.15 K, x2 = 0.6001	1013.38
293.15 K, x2 = 0.6495	1020.26
293.15 K, x2 = 0.6934	1026.46
293.15 K, x2 = 0.7501	1034.48
293.15 K, x2 = 0.7971	1041.1
293.15 K, x2 = 0.8499	1048.6
293.15 K, x2 = 0.9002	1055.59
293.15 K, x2 = 0.9493	1062.61
293.15 K, x2 = 0.975	1066.22
303.15 K, x2 = 0	919.089
303.15 K, x2 = 0.025	922.4
303.15 K, x2 = 0.0501	925.708
303.15 K, x2 = 0.0999	932.33
303.15 K, x2 = 0.15	939.009
303.15 K, x2 = 0.1998	945.689
303.15 K, x2 = 0.2499	952.431
303.15 K, x2 = 0.3004	959.251
303.15 K, x2 = 0.35	965.996
303.15 K, x2 = 0.4003	972.857
303.15 K, x2 = 0.4488	979.518
303.15 K, x2 = 0.4999	986.544
303.15 K, x2 = 0.5496	993.403
303.15 K, x2 = 0.6	1000.41
303.15 K, x2 = 0.6489	1007.22
303.15 K, x2 = 0.6986	1014.13
303.15 K, x2 = 0.7494	1021.26
303.15 K, x2 = 0.8	1028.36
303.15 K, x2 = 0.8496	1035.38
303.15 K, x2 = 0.8999	1042.51
303.15 K, x2 = 0.9496	1049.56
303.15 K, x2 = 0.9753	1053.22
313.15 K, x2 = 0	906.116
313.15 K, x2 = 0.0248	909.387
313.15 K, x2 = 0.0501	912.718
313.15 K, x2 = 0.1003	919.392
313.15 K, x2 = 0.1499	925.976
313.15 K, x2 = 0.2001	932.73
313.15 K, x2 = 0.25	939.446
313.15 K, x2 = 0.2999	946.16
313.15 K, x2 = 0.3502	953.002
313.15 K, x2 = 0.3999	959.753
313.15 K, x2 = 0.45	966.575
313.15 K, x2 = 0.4996	973.402
313.15 K, x2 = 0.5501	980.351
313.15 K, x2 = 0.5998	987.189
313.15 K, x2 = 0.6502	994.195
313.15 K, x2 = 0.7	1001.12
313.15 K, x2 = 0.7501	1008.14
313.15 K, x2 = 0.7999	1015.14
313.15 K, x2 = 0.8499	1022.15
313.15 K, x2 = 0.8995	1029.12
313.15 K, x2 = 0.9501	1036.31
313.15 K, x2 = 0.9746	1039.75
